# What was measured:
# [1] = test system: zebrafish; settings: Choi et al., Development 2011; cited from earlier work
# [2] = test system: HMG-CoA reductase pathway; settings: zebrafish; Choi et al., Development 2011; cited from earlier work
# [3] = test system: Zebrafish embryos; test: Cholesterol assay in zebrafish embryos (Amplex Red Cholesterol Assay Kit); assay type: in vivo; settings: 40 μM, treated from 10 hpf to 30 hpf; FIG. 1
# Method: (§1) Zebrafish embryos used in cholesterol assays were treated with aplexone or atorvastatin (AT) from 10 hpf to 30 hpf at a concentration of 40 μM. Yolks were removed by vortexing in calcium-free Ringer's solution with 1 mM EDTA at 4° C. The embryos were then washed with calcium-free Ringer's solution, resuspended in cholesterol assay reaction buffer, and lysed by sonication. Cholesterol levels in embryo lysates were measured with an Amplex Red Cholesterol Assay Kit (ThermoFisher Scientific) and FLUOstar Omega microplate reader (BMG Labtech). Protein concentrations of the embryo lysates were measured by DC protein assay (Bio-Rad Laboratories) using a FLUOstar Omega microplate reader.
# [4] = test system: Transgenic Tg(kdrl:GFP)la116 zebrafish embryos; test: Disruption of the caudal vein plexus in zebrafish embryos; assay type: in vivo; settings: two-day-old zebrafish embryos, treated beginning at 10 hpf
# Method: (§2) Transgenic Tg(kdrl:GFP)la116 zebrafish embryos were treated with aplexone compounds beginning at 10 hours post fertilization (hpf). After two days of development, treated embryos were anesthetized with 0.01% tricaine and imaged using a Zeiss Axioplan 2 microscope. […] Formation of the caudal vein plexus is disrupted by treatment with 10 μM or higher of racemic (±)-aplexone (3) and 5 μM or higher of R-aplexone (3), but the caudal vein plexus forms normally even after treatment with 20 μM (S)-aplexone (3).
# [5] = test system: Zebrafish embryos; test: Biological assays used herein (summary statement); assay type: in vivo
# Method: as §2, §1
melting point [°C],SMILES,levels of embryonic cholesterol compared with atorvastatin [1],regulation of arteriovenous angiogenesis [2],cholesterol levels in embryo lysates compared with atorvastatin (AT) [3],concentration at which formation of the caudal vein plexus is disrupted [4] [µM],biological activity of the enantiomer [5]
–,"CC(=O)C1=CCC(c2ccccc2)N(S(=O)(=O)c2ccc(C)cc2)C1 (racemic) [(±)-aplexone, 1-(6-phenyl-1-tosyl-1,2,5,6-tetrahydropyridin-3-yl)ethan-1-one]",lowered the levels of embryonic cholesterol to a degree similar to that of atorvastatin,regulate arteriovenous angiogenesis in zebrafish,lowered the cholesterol levels to an extent similar to that of AT,≥ 10,–
145 to 146,"CCOC(=O)C1=CC[C@H](c2ccccc2)N(S(=O)(=O)c2ccc(C)cc2)C1 [7c, Ethyl (R)-6-phenyl-1-tosyl-1,2,5,6-tetrahydropyridine-3-carboxylate]",–,–,–,–,–
–,CC(=O)C1=CC[C@H](c2ccccc2)N(S(=O)(=O)c2ccc(C)cc2)C1 [R-aplexone],–,–,decreased the cholesterol levels to a greater extent than AT,≥ 5,active enantiomer
–,CC(=O)C1=CC[C@@H](c2ccccc2)N(S(=O)(=O)c2ccc(C)cc2)C1 [S-aplexone],–,–,no cholesterol lowering activity,> 20,little to no biological activity
